Test results: US20180312473A1, “PHENAZINE DERIVATIVES AS ANTIMICROBIAL AGENTS” (priority 2015, published 2018)
pIC50: −log10 of the molar value. Converted amounts (≈) assume the structure as drawn. Read-outs that look alike come from different tables or passages of the source.

Assays:
[1] = test system: VRE (E. faecium ATCC 700221) planktonic cells and biofilms; experiment: Calgary Biofilm Device (CBD) assay, MBC/MBEC; type: cell-based, Enterococcus faecium; details: Enterococcus; Table 8; c lowest concentration tested; read-out: VRE 700221 MBC
[2] = test system: Enterococcus faecium (ATCC 700221), VRE; experiment: MIC assay (broth microdilution, CLSI); type: cell-based
[3] = test system: MRSA-2 planktonic cells and biofilms; experiment: Calgary Biofilm Device (CBD) assay, MBC/MBEC; type: cell-based, Staphylococcus aureus
[4] = test system: human red blood cells; experiment: Hemolysis assay with red blood cells
Experimental: The hemolysis activities of select compounds of the invention were determined. […] The washing was repeated three times with the buffer. In 96-well plate, test compounds were added to the buffer from DMSO stocks. […] The plate was then incubated for 1 hour at 37° C. After incubation, the plate was centrifuged for 5 minutes at 3,500 rpm. Then 80 μL of the supernatant was transferred to another 96-well plate, and the optical density (OD) was read at 405 nm. DMSO served as the negative control (0% hemolysis), while Triton X served as the positive control (100% hemolysis). The percent of hemolysis was calculated as (OD405 of the compound−OD405 of DMSO)/(OD405 of Triton X−OD405 of the buffer).
The washing was repeated three times with the buffer. In 96-well plate, test compounds were added to the buffer from DMSO stocks. […] The plate was then incubated for 1 hour at 37° C. After incubation, the plate was centrifuged for 5 minutes at 3,500 rpm. Then 80 μL of the supernatant was transferred to another 96-well plate and the optical density (OD) was read at 405 nm. DMSO served as our negative control (0% hemolysis) while Triton X served as our positive control (100% hemolysis). The percent of hemolysis was calculated as (OD405 of the test compound−OD405 DMSO)/(OD405 Triton X−OD405 buffer) from three independent experiments.

[5] = test system: MRSE (S. epidermidis ATCC 35984) planktonic cells and biofilms; experiment: Calgary Biofilm Device (CBD) assay, MBC/MBEC; type: cell-based, Staphylococcus epidermidis; details: Staphylococcus epidermidis; Table 8; read-out: MRSE 35984 MBC
[6] = test system: MRSA BAA-44; experiment: MIC assay (broth microdilution, CLSI); details: Staphylococcus aureus, read-out: MIC, MRSA BAA-44
[7] = test system: Staphylococcus epidermidis (ATCC 12228); experiment: MIC assay (broth microdilution, CLSI); type: cell-based
[8] = test system: HeLa cells; experiment: in vitro; type: cell-based
Experimental: (§1) The cytotoxicities of select compounds of the invention against HeLa cells were determined. HeLa cytotoxicity was assessed using the LDH release assay described by CYTOTOX96 (Promega G1780). HeLa cells were grown in Dulbecco's Modified Eagle Medium (DMEM; Gibco) supplemented with 10% Fetal Bovine Serum (FBS) at 37° C. with 5% CO2. […] Triton X-100 (at 2% v/v) was used as the positive control for maximum lactate dehydrogenate (LDH) activity in this assay (e.g., complete cell death), while “medium only” lanes served as negative control lanes (e.g., no cell death). DMSO was used as the vehicle control. […] Finally, Stop Solution (50 μL) was added to the incubating plates, and the absorbance was measured at 490 nm.
(§2) HeLa cytotoxicity was assessed using the LDH release assay described by CYTOTOX96 (Promega G1780). HeLa cells were grown in Dulbecco's Modified Eagle Medium (DMEM; Gibco) supplemented with 10% Fetal Bovine Serum (FBS) at 37° C. with 5% CO2. […] Triton X-100 (at 2% v/v) was used as the positive control for maximum lactate dehydrogenate (LDH) activity in this assay (e.g., complete cell death), while “medium only” lanes served as negative control lanes (e.g., no cell death). DMSO was used as our vehicle control. […] Finally, Stop Solution (50 μL) was added to the incubating plates and the absorbance was measured at 490 nm. Results are from three independent experiments (FIG. 19)

[9] = in vitro; type: cell-based; details: human
Experimental: as §1, §2

[10] = test system: MRSA-2 (methicillin-resistant Staphylococcus aureus clinical isolate); experiment: MIC assay (broth microdilution, CLSI); type: cell-based; details: read-out: MIC, MRSA-2
[11] = test system: MRSA BAA-1707; experiment: MIC assay (broth microdilution, CLSI); details: Staphylococcus aureus, read-out: MIC, MRSA BAA-1707
[12] = test system: Staphylococcus epidermidis (ATCC 35984), MRSE; experiment: MIC assay (broth microdilution, CLSI); type: cell-based; details: for MIC: Staphylococcus epidermidis
[13] = test system: MRSA-1 (methicillin-resistant Staphylococcus aureus clinical isolate); experiment: MIC assay (broth microdilution, CLSI); type: cell-based; details: Table 2A
[14] = Enterococcus faecium, Table 2A, read-out: MIC, Enterococcus faecium (ATCC 700221)
[15] = Table 7, b lowest concentration tested, read-out: MIC, VRE 700221
[16] = Staphylococcus aureus, MRSA, Table 4, read-out: MBC, MRSA-2
[17] = Staphylococcus aureus, MRSA, Table 8, a/b 2-/4-fold range in independent experiments, read-out: MRSA-2 MBC
[18] = Staphylococcus epidermidis, ATCC12228, Table 2A, read-out: MIC, Staphylococcus epidermidis (ATCC 12228)
[19] = Staphylococcus epidermidis, ATCC12228, Table 7, b lowest concentration tested, read-out: MIC, S. epidermidis 12228
[20] = Staphylococcus aureus, MRSA, Table 7, a midpoint of 2-fold range, b lowest concentration tested
[21] = Staphylococcus aureus, MRSA, Table 2A
[22] = Table 2A, read-out: MIC, Staphylococcus epidermidis (ATCC 35984)
[23] = Table 7, read-out: MIC, MRSE 35984

## Oc1c(Cl)cc(Br)c2nc3ccccc3nc12 [Compound 5, 4-Bromo-2-chloro-1-hydroxyphenazine]
[1]
  MBC: 11.7 µM (≈ 3.62 µg/mL)
[2]; [14]
  MIC: 6.25 µM (≈ 1.93 µg/mL)
[2]; [15]
  MIC: 6.25 µM (≈ 1.93 µg/mL)
[3]; [16]
  MBC: 62.5 µM (≈ 19.3 µg/mL)
[3]; [17]
  MBC: 62.5 µM (≈ 19.3 µg/mL)
[4]; human, 1 h, 200 μM, pH 7.2
  % Hemolysis (200 μM): ≤1%
  % Hemolysis at 200 μM: ≤1%
[5]
  MBC: 31.3 µM (≈ 9.69 µg/mL)
[6]
  MIC: 3.13 µM (≈ 0.969 µg/mL)
[7]; [18]
  MIC: 3.13 µM (≈ 0.969 µg/mL)
[7]; [19]
  MIC: 3.13 µM (≈ 0.969 µg/mL)
other
  melting point: 229 to 231 °C
[8]; human, 24 h
  pIC50: < 4.00
[9]
  IC50 at 24 h: > 100 µM

## C=CCc1cc(Br)c2nc3cc(Br)c(Br)cc3nc2c1O [Compound 24, 2-Allyl-4,7,8-tribromo-1-hydroxyphenazine]
[10]; [20]
  MIC: > 100 µM
[2]; [15]
  MIC: > 100 µM
[7]; [19]
  MIC: > 100 µM
other
  melting point: 187 to 189 °C

## Oc1c(Cl)cc(Cl)c2nc3ccccc3nc12 [Compound 3, 2,4-Dichloro-1-hydroxyphenazine]
[10]; [21]
  MIC: 3.13 µM (≈ 0.83 µg/mL)
[10]; [20]
  MIC: 3.13 µM (≈ 0.83 µg/mL)
[2]; [14]
  MIC: 12.5 µM (≈ 3.31 µg/mL)
[2]; [15]
  MIC: 12.5 µM (≈ 3.31 µg/mL)
[11]
  MIC: 3.13 µM (≈ 0.83 µg/mL)
[3]; [16]
  MBC: 62.5 µM (≈ 16.6 µg/mL)
[3]; [17]
  MBC: 62.5 µM (≈ 16.6 µg/mL)
[3]; Table 4
  MBEC:MBC ratio, MRSA-2: >16.0
[12]; [22]
  MIC: 3.13 µM (≈ 0.83 µg/mL)
[12]; [23]
  MIC: 3.13 µM (≈ 0.83 µg/mL)
[4]; human, 1 h, 200 μM, pH 7.2
  % Hemolysis (200 μM): ≤1%
  % Hemolysis at 200 μM: ≤1%
[6]
  MIC: 3.13 µM (≈ 0.83 µg/mL)
[7]; [18]
  MIC: 3.13 µM (≈ 0.83 µg/mL)
[7]; [19]
  MIC: 3.13 µM (≈ 0.83 µg/mL)
other
  melting point: 205 to 207 °C
[13]; Staphylococcus aureus, MRSA, read-out: MIC, MRSA-1
  MIC: 3.13 µM (≈ 0.83 µg/mL)

## Oc1c(I)cc(I)c2nc3ccccc3nc12 [Compound 4, 2,4,-Diiodo-1-hydroxyphenazine]
[10]; [20]
  MIC: 3.13 µM (≈ 1.4 µg/mL)
[10]; Table 2A
  MIC: 3.13 µM (≈ 1.4 µg/mL)
[1]
  MBC: 23.5 µM (≈ 10.5 µg/mL)
[2]; Table 2A, read-out: MIC, Enterococcus faecium (ATCC 700221)
  MIC: 6.25 µM (≈ 2.8 µg/mL)
[2]; [15]
  MIC: 6.25 µM (≈ 2.8 µg/mL)
[11]
  MIC: 3.13 µM (≈ 1.4 µg/mL)
[3]; [17]
  MBC: 31.3 µM (≈ 14 µg/mL)
[3]; Table 4
  MBEC, MRSA-2: 93.8 µM
  MBEC:MBC ratio, MRSA-2: 3.0
[3]; Table 4, read-out: MBC, MRSA-2
  MBC: 31.3 µM (≈ 14 µg/mL)
[12]; [23]
  MIC: 1.17 µM (≈ 0.524 µg/mL)
[12]; Table 2A
  MIC, Staphylococcus epidermidis (ATCC 35984): 0.78 to 1.56 µM
[4]
  % Hemolysis (200 μM): ≤1%
[4]; human, 1 h, 200 μM, pH 7.2
  % Hemolysis at 200 μM: ≤1%
[5]
  MBC: 31.3 µM (≈ 14 µg/mL)
[6]
  MIC: 3.13 µM (≈ 1.4 µg/mL)
[7]; [19]
  MIC: 1.56 µM (≈ 0.699 µg/mL)
[7]; Table 2A, read-out: MIC, Staphylococcus epidermidis (ATCC 12228)
  MIC: 1.56 µM (≈ 0.699 µg/mL)
[8]
  pIC50: < 4.00
[9]
  IC50 at 24 h: > 100 µM
[13]
  MIC, MRSA-1: 0.78 to 1.56 µM

## Oc1c(I)cc(Cl)c2nc3ccccc3nc12 [Compound 9, 4-Chloro-2-iodo-1-hydroxyphenazine]
[10]; [21]
  MIC: 25 µM (≈ 8.91 µg/mL)
[10]; [20]
  MIC: 25 µM (≈ 8.91 µg/mL)
[2]; [14]
  MIC: 6.25 µM (≈ 2.23 µg/mL)
[2]; [15]
  MIC: 6.25 µM (≈ 2.23 µg/mL)
[11]
  MIC: 3.13 µM (≈ 1.12 µg/mL)
[3]; [16]
  MBC: 93.8 µM (≈ 33.4 µg/mL)
[3]; [17]
  MBC: 93.8 µM (≈ 33.4 µg/mL)
[3]; Table 4
  MBEC:MBC ratio, MRSA-2: 2.7
[12]; [22]
  MIC: 25 µM (≈ 8.91 µg/mL)
[12]; [23]
  MIC: 25 µM (≈ 8.91 µg/mL)
[4]; human, 1 h, 200 μM, pH 7.2
  % Hemolysis (200 μM): ≤1%
  % Hemolysis at 200 μM: ≤1%
[5]
  MBC: 125 µM (≈ 44.6 µg/mL)
[6]
  MIC: 12.5 µM (≈ 4.46 µg/mL)
[7]; [18]
  MIC: 25 µM (≈ 8.91 µg/mL)
[7]; [19]
  MIC: 25 µM (≈ 8.91 µg/mL)
other
  melting point: 175 to 177 °C

## Oc1c(I)cc(Br)c2nc3ccccc3nc12 [Compound 10, 4-Bromo-2-iodo-1-hydroxyphenazine]
[2]; [14]
  MIC: 6.25 µM (≈ 2.51 µg/mL)
[2]; [15]
  MIC: 6.25 µM (≈ 2.51 µg/mL)
[3]; [16]
  MBC: 46.9 µM (≈ 18.8 µg/mL)
[3]; [17]
  MBC: 46.9 µM (≈ 18.8 µg/mL)
[4]; human, 1 h, 200 μM, pH 7.2
  % Hemolysis (200 μM): 1.3%
  % Hemolysis at 200 μM: 1.3%
other
  melting point: 188 to 190 °C
